Measurements published in patent US8293511B2, “Production of β-Lactam antibiotics” (DSM IP Assets B.V., priority 2006, dated 2012).

What was measured:
[1] = system: Bacillus subtilis ATCC6633; assay: Bioassay development: growth in 2xTY medium with serial dilutions of antibiotic, OD600; format: cell-based; details: 16 hours
Experimental: (§1) The bacterial strains Escherichia coli ESS, Bacillus subtilis ATCC6633 and Micrococcus luteus ATCC9341 were grown overnight in 2×TY-medium at 30° C. and 280 rpm. After 16 hours of growth, the OD^600 was measured. Typically, the OD^600 amounts 5.0, ranging from 2.0 to 8.0.
(§2) A solution of amoxicillin was made at a concentration of 7 mg/ml. Subsequently, serial dilutions were made ranging from 1 mg/l down to 0.001 mg/l. MilliQ water served as a negative control.
(§3) In a 96 wells microplate, 25 μl of the serial dilutions were pipetted in the wells. Each microplate was prepared in duplicate. The overnight bacterial cultures were diluted in fresh 2×TY-medium to a final OD^600 of 0.01. To each well, 150 μl of the diluted bacterial cultures was added. The microplates were covered with a lid, and incubated overnight at 25° C. and the duplicate microplate at 37° C.
(§4) After 16 hours of incubation, the OD^600 was read in a microplate reader. From the results, the concentration of amoxicillin still allowing uninhibited growth of the test microorganisms can be read.
(§5) A solution of ampicillin was made at a concentration of 7 mg/ml. Subsequently, serial dilutions were made ranging from 1 mg/l down to 0.001 mg/l. MilliQ water served as a negative control.
(§6) In a 96 wells microplate, 25 μl of the serial dilutions were pipetted in the wells. Each microplate was prepared in duplicate. The overnight bacterial cultures were diluted in fresh 2×TY-medium to a final OD^600 of 0.01. To each well, 150 μl of the diluted bacterial cultures was added. The microplates were covered with a gas permeable adhesive seal, and incubated overnight at 25° C. and the duplicate microplate at 37° C.
(§7) After 16 hours of incubation, the OD^600 was read in a microplate reader. From the results, the concentration of ampicillin still allowing uninhibited growth of the test microorganisms can be read.

[2] = system: Micrococcus luteus ATCC9341; assay: as above; format: cell-based; details: 16 hours
Experimental: as §1, §2, §3, §4, §5, §6, §7

[3] = system: Escherichia coli ESS (DS10031); assay: as above; format: cell-based; details: 16 hours
Experimental: as §1, §2, §3, §4, §5, §6, §7

[4] = system: IPNS; details: Huffman et al. J. Med. Chem. 1992; cited from earlier work

Compound: CC1(C)S[C@@H]2[C@H](NC(=O)[C@H](N)c3ccc(O)cc3)C(=O)N2[C@H]1C(=O)O [Amoxicillin, amoxicillin]
- Concentration of amoxicillin still allowing uninhibited growth in 2xTY medium ([1]; at 25° C.): 1.0 mg/L
- Concentration of amoxicillin still allowing uninhibited growth in 2xTY medium ([1]; at 37° C.): 5 mg/L
- Concentration of amoxicillin still allowing uninhibited growth in 2xTY medium ([2]; at 25° C.): 0.001 mg/L
- Concentration of amoxicillin still allowing uninhibited growth in 2xTY medium ([2]; at 37° C.): 0.002 mg/L
- Concentration of amoxicillin still allowing uninhibited growth in 2xTY medium ([3]; at 25° C.): 0.1 mg/L
- Concentration of amoxicillin still allowing uninhibited growth in 2xTY medium ([3]; at 37° C.): 0.1 mg/L

Compound: CC1(C)S[C@@H]2[C@H](NC(=O)[C@H](N)c3ccccc3)C(=O)N2[C@H]1C(=O)O [Ampicillin, ampicillin]
- Concentration of ampicillin still allowing uninhibited growth in 2xTY medium ([1]; at 25° C.): 0.5 mg/L
- Concentration of ampicillin still allowing uninhibited growth in 2xTY medium ([1]; at 37° C.): 2.5 mg/L
- Concentration of ampicillin still allowing uninhibited growth in 2xTY medium ([2]; at 25° C.): 0.001 mg/L
- Concentration of ampicillin still allowing uninhibited growth in 2xTY medium ([2]; at 37° C.): 0.002 mg/L
- Concentration of ampicillin still allowing uninhibited growth in 2xTY medium ([3]; at 25° C.): 0.05 mg/L
- Concentration of ampicillin still allowing uninhibited growth in 2xTY medium ([3]; at 37° C.): 0.05 mg/L

Compound: CC(C)[C@@H](NC(=O)[C@H](CS)NC(=O)Cc1ccc(O)cc1)C(=O)O [p-hydroxyphenylacetyl-L-cysteinyl-D-valine]
- Antibiotic activity after treatment of the substrate with IPNS [4]: not to result in antibiotic activity

Compound: m-COOH-DL-phenylglycyl-L-cysteinyl-D-valine
- Antibiotic activity after treatment of the substrate with IPNS [4]: not to result in antibiotic activity
